Measured values as given in US12390460B2, “Treatment for obesity” (1GLOBE BIOMEDICAL CO., LTD., priority 2018, dated 2025).

Legend:
[1] = test system: intestinal fat absorption; assay: Fecal triglyceride content (biochemical kit) in HFD-fed mice; type: in vivo; settings: 5th week of treatment, vs vehicle, FIG. 2A
Description: Referring to FIG. 2A, the fecal triglyceride content was assessed using a standard biochemical kit (Biovision, Mountain View, CA). Fecal samples were collected on the 5th week of the treatment over the course of three days. The fecal triglyceride content was normalized to fecal mass. […] Therefore, this mechanism cannot explain the observed significant weight loss in the drug-treated mice.

[2] = Fat pad weights at euthanasia (body composition); type: in vivo; settings: HFD-fed mice at euthanasia
Excerpt: In agreement with effects of Compound 14-3 seen in the above examples, favorable changes in the body composition of Compound 14-3-treated and HFD-fed mice were also observed at the time of euthanasia through gross examination.
The former anatomical site represents visceral fat depos, while the latter belongs to subcutaneous fat depo from the perspective of human health. Both of these changes were considered very substantial and beneficial in the anti-obesity effect profile of the compound of the invention.

[3] = test system: genes involved in lipid transport and degradation, beta-oxidation, de novo lipogenesis, and insulin sensitivity (RORA, ACADM, ACOX1, MLYCD, PEPCK); assay: Gene expression in visceral fat (eWAT); type: in vivo; settings: HFD-fed mice
Excerpt: To get a more detailed insight into the metabolic changes caused by the Compound 14-3 treatment in the visceral fat (eWAT), the expression of genes involved in lipid transport and degradation, beta-oxidation, de novo lipogenesis, and insulin sensitivity were examined.
Acyl-Coenzyme A dehydrogenase, C-4 to C-12 straight chain (ACADM, FIG. 6B) is known to be important for the degradation of medium chain fatty acids.
Similarly, malonyl CoA decarboxylase (MLYCD, FIG. 6D) has been induced by the Compound 14-3 treatment. This event is linked to decreased malonyl CoA synthesis and the suppression of de novo lipogenesis by Compound 14-3.

leptin = assay: Serum leptin (ELISA); type: in vivo; settings: HFD-fed mice, FIG. 7C
Excerpt: Since crosstalk between leptin and FGF21 has been proposed in connection with the anti-obesity effects of FGF21 and a suppressive effect of exogenous FGF21 on circulating leptin levels has been previously observed in non-human primates, we also measured serum leptin levels using a commercially available ELISA kit. As expected, changes in fat content in the Compound 14-3-treated HFD group were followed by decrease in serum levels of fat-derived ‘satiety’ hormone leptin, indicating improved leptin resistance resulting from treatment using a compound of the invention (FIG. 7C). Thus, lower circulation levels of leptin were most likely due to drug-induced reductions in the masses of fat depos. This finding can explain decrease in POMC gene expression in the hypothalamus, as leptin is capable to directly modulate hypothalamic melanocortin system by changing the activity of POMC neurons.

liver = assay: Liver size, appearance and liver/body weight ratio (NAFLD) in HFD-fed mice; type: in vivo
Excerpt: The enlarged liver appeared pale yellow consistent with fatty metamorphosis. […] The beneficial effect on liver size and appearance was consistent as a part of overall improvement in metabolic properties after Compound 14-3 treatment.

human HepG2 liver cells = assay: Intracellular triglyceride content in HepG2 cells with palmitoleic acid (biochemical kit); type: cell-based; settings: HepG2, 1.6 mM palmitoleic acid, 48 hours, 0.1 μM compound, vs DMSO; FIG. 10A
Description: A series of in vitro experiments were first carried out with various human hepatocyte cultures. For example, human HepG2 liver cells were incubated with 1.6 mM palmitoleic acid in EMEM medium for 48 hours in the presence of 0.1 μM Compound 14-3 or control vehicle, DMSO. After 48 hours, cells were collected and the intracellular triglyceride content was measured by a biochemical kit (Biovision, Mountain View, CA) as described in Derdak et al. J Hepatol. 2013; 58(4):785-91.

Structure (SMILES): CCN(CC)CCNC(=O)c1c(C)[nH]c(/C=C2\C(=O)Nc3ccc(-c4csc(-c5ccccc5)n4)cc32)c1C [Compound 14-3]
- fecal triglyceride content normalized to fecal mass [1]: little difference
- epididymal fat pad weights ([2]; FIG. 3A): markedly decreased
- epididymal fat/body weight ratio ([2]; FIG. 3B): markedly decreased
- unilateral (inguinal) fat pad weights ([2]; FIG. 3C): markedly decreased
- inguinal fat/body weight ratio ([2]; FIG. 3D): markedly decreased
- RORA expression in eWAT ([3]; FIG. 6A): significantly increased
- ACADM gene expression in eWAT ([3]; FIG. 6B): Increased
- ACOX1 expression in eWAT ([3]; FIG. 6C): increased
- MLYCD expression in eWAT ([3]; FIG. 6D): induced
- PEPCK gene expression in eWAT ([3]; FIG. 6E): comparable to that of the control-fed mice
- serum leptin levels (leptin): decrease
- NAFLD (liver; FIG. 8A): marked improvement
- size of the liver (liver; FIG. 8A): markedly decreased
- liver/body weight ratio (liver; FIG. 8B): lower
- palmitoleic acid-induced increase of intracellular triglyceride content (human HepG2 liver cells): markedly suppressed
